Results reported in US9969694B2, “N-(arylalkyl)-N′-pyrazolyl-urea, thiourea, guanidine and cyanoguanidine compounds as TrkA kinase inhibitors” (Array BioPharma Inc., priority 2012, dated 2018).

Tests used:
Experiment in all cases: Off-Target Kinase Profiling
Assay type in all cases: biochemical
Conditions in all cases: 10 μM; ATP near Km
[1] = tested on: c-RAF
Description: (§1) Representative compounds of the invention (Examples 33 and 10) were tested for off-target kinase activity at a concentration of 10 μM by Millipore, Inc. in their KinaseProfiler™ service against all the kinases available in their full kinase panel. Compounds were run in duplicate at a concentration of ATP near the Km for each individual kinase according to Millipore's specifications. The results are shown in Table B. Data are reported as percent of control (POC) and are the average of the two replicates.

[2] = target: T1, CLK3 (Homo sapiens, UniProt P49761)
T1 construct: purchased Millipore, Inc. (KinaseProfiler service)
Description: as §1

[3] = target: T2, CDK2/cyclinA (Homo sapiens, UniProt P24941)
T2 construct: purchased Millipore (KinaseProfiler service)
Description: as §1

[4] = target: T3, GRK6 (Homo sapiens, UniProt P43250)
T3 construct: purchased Millipore, Inc. (KinaseProfiler service)
T3 sequence (P43250 whole entry): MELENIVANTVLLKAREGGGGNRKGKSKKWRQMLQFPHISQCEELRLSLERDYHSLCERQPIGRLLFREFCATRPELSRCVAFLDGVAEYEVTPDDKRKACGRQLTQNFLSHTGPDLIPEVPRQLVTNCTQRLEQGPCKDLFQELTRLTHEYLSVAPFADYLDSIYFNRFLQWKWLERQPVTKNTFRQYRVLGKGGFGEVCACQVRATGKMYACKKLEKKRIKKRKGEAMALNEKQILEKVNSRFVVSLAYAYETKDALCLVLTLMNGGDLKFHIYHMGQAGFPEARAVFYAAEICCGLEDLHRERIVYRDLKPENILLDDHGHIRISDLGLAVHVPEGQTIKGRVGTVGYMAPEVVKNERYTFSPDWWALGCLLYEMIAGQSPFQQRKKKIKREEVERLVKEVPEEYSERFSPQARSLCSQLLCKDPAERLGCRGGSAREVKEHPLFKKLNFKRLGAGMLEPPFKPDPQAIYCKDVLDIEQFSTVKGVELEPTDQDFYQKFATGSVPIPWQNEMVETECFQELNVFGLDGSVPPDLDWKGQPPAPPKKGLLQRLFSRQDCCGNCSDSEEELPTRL
Description: as §1

[5] = target: T4, MuSK (Homo sapiens, UniProt O15146)
T4 construct: purchased Millipore, Inc. (KinaseProfiler service)
Description: as §1

[6] = target: T5, FGFR4 (Homo sapiens, UniProt P22455)
T5 construct: purchased Millipore, Inc. (KinaseProfiler service)
Description: as §1

[7] = target: T6, MSSK1 (Homo sapiens, UniProt Q9UPE1)
T6 construct: purchased Millipore, Inc. (KinaseProfiler service)
Description: as §1

[8] = target: T7, p38alpha (Homo sapiens, UniProt Q16539)
T7 construct: purchased Millipore, Inc. (KinaseProfiler service)
Description: as §1

[9] = target: T8, TEC Activated (Homo sapiens, UniProt P42680)
T8 construct: purchased Millipore, Inc. (KinaseProfiler service)
Description: as §1

[10] = target: T9, JNK1alpha1 (Homo sapiens, UniProt P45983)
T9 construct: purchased Millipore, Inc. (KinaseProfiler service)
Description: as §1

[11] = target: T10, CAMK2d (Homo sapiens, UniProt Q13557)
T10 construct: purchased Millipore (KinaseProfiler service)
Description: as §1

[12] = target: T11, BrSK2 (Homo sapiens, UniProt Q8IWQ3)
T11 construct: purchased Millipore (KinaseProfiler service)
Description: as §1

[13] = target: T12, DAPK2 (Homo sapiens, UniProt Q9UIK4)
T12 construct: purchased Millipore, Inc. (KinaseProfiler service)
Description: as §1

[14] = target: T13, WNK2 (Homo sapiens, UniProt Q9Y3S1)
T13 construct: purchased Millipore, Inc. (KinaseProfiler service)
Description: as §1

[15] = target: T14, JNK2alpha2 (Homo sapiens, UniProt P45984)
T14 construct: purchased Millipore, Inc. (KinaseProfiler service)
Description: as §1

[16] = target: T15, SRPK2 (Homo sapiens, UniProt P78362)
T15 construct: purchased Millipore, Inc. (KinaseProfiler service)
Description: as §1

[17] = target: T16, HIPK2 (Homo sapiens, UniProt Q9H2X6)
T16 construct: purchased Millipore, Inc. (KinaseProfiler service)
Description: as §1

[18] = target: T17, PKD1 (Homo sapiens, UniProt Q15139)
T17 construct: purchased Millipore, Inc. (KinaseProfiler service)
Description: as §1

[19] = target: T18, PAK5 (Homo sapiens, UniProt Q9P286)
T18 construct: purchased Millipore, Inc. (KinaseProfiler service)
Description: as §1

[20] = target: T19, CK2alpha2 (Homo sapiens, UniProt P19784)
T19 construct: purchased Millipore, Inc. (KinaseProfiler service)
Description: as §1

[21] = target: T20, AKT1 (Homo sapiens, UniProt P31749)
T20 construct: purchased Millipore (KinaseProfiler service)
Description: as §1

[22] = target: T21, ITK (Homo sapiens, UniProt Q08881)
T21 construct: purchased Millipore, Inc. (KinaseProfiler service)
T21 sequence (Q08881 whole entry): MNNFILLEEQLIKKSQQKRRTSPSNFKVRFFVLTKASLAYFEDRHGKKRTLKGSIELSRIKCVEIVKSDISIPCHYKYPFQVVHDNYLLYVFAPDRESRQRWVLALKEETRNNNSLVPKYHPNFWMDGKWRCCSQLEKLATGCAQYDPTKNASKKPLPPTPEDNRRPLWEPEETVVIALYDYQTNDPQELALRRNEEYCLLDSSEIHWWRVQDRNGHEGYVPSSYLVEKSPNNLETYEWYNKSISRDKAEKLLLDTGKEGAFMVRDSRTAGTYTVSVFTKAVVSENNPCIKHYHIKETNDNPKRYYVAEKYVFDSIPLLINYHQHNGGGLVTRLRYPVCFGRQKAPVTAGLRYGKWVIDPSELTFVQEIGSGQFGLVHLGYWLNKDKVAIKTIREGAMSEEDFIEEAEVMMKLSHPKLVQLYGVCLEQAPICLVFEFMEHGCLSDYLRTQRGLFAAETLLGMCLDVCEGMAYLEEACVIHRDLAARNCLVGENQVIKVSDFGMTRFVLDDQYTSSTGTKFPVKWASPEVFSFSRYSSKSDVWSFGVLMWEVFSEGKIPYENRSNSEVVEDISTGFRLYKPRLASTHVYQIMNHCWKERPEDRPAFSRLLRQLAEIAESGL
Description: as §1

[23] = target: T22, Ron (Homo sapiens, UniProt Q04912)
T22 construct: purchased Millipore, Inc. (KinaseProfiler service)
Description: as §1

[24] = target: T23, Mer (Homo sapiens, UniProt Q12866)
T23 construct: purchased Millipore, Inc. (KinaseProfiler service)
Description: as §1

[25] = target: T24, ROCK-II (Homo sapiens, UniProt O75116)
T24 construct: purchased Millipore, Inc. (KinaseProfiler service)
Description: as §1

[26] = target: T25, PKCbetaII (Homo sapiens, UniProt P05771)
T25 construct: purchased Millipore, Inc. (KinaseProfiler service)
T25 sequence (P05771 1-673 isoform P05771-2): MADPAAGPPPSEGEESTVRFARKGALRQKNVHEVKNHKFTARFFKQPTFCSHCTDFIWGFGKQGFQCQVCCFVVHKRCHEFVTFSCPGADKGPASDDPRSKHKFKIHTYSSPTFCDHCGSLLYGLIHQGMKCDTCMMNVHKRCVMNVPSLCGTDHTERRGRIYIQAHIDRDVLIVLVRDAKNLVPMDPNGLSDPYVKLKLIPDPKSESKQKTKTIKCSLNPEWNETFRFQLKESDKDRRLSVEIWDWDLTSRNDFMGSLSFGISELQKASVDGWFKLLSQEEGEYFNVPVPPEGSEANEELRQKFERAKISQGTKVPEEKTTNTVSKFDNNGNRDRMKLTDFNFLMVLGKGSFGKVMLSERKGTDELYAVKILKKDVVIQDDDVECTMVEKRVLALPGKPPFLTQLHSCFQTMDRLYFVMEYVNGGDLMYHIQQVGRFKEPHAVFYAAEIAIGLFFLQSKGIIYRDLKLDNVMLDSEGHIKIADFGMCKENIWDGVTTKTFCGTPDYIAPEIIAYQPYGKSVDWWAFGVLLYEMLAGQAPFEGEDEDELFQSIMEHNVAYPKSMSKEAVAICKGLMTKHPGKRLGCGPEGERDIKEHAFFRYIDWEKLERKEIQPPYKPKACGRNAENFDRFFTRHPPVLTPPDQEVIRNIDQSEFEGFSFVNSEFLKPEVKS
Description: as §1

[27] = target: T26, Flt1 (Homo sapiens, UniProt P17948)
T26 construct: purchased Millipore, Inc. (KinaseProfiler service)
Description: as §1

[28] = target: T27, IR (Homo sapiens, UniProt P06213)
T27 construct: purchased Millipore, Inc. (KinaseProfiler service)
Description: as §1

[29] = target: T28, ALK (Homo sapiens, UniProt Q9UM73)
T28 construct: purchased Millipore (KinaseProfiler service)
Description: as §1

[30] = target: T29, JAK2 (Homo sapiens, UniProt O60674)
T29 construct: purchased Millipore, Inc. (KinaseProfiler service)
T29 sequence (O60674 whole entry): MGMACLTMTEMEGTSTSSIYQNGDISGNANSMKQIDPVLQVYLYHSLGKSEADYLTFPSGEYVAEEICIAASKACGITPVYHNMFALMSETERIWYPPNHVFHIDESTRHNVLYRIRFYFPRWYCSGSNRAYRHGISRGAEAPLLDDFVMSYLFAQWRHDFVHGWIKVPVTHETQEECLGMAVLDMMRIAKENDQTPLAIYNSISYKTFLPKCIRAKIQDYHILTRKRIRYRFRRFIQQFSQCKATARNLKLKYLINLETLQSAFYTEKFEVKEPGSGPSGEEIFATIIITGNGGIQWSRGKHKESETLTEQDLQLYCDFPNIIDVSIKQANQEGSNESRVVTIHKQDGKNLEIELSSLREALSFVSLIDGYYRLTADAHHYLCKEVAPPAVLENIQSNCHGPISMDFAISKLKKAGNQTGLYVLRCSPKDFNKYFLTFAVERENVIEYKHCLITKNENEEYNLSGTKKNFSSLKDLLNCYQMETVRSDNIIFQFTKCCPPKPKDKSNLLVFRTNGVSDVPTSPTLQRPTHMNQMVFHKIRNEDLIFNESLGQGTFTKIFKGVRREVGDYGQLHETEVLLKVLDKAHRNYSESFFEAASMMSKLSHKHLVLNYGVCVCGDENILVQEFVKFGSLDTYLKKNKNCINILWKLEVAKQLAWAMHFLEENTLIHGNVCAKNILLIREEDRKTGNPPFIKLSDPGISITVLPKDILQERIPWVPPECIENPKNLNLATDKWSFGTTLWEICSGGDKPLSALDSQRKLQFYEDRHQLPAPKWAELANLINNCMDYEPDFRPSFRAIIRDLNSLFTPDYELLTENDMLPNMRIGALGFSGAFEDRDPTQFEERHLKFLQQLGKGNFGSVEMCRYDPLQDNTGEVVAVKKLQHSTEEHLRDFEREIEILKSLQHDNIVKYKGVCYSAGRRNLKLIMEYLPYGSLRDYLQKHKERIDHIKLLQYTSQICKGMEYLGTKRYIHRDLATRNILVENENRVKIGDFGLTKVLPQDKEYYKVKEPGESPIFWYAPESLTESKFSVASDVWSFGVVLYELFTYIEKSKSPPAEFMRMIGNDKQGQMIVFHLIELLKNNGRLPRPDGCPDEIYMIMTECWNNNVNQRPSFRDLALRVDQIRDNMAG
Description: as §1

[31] = target: T30, NEK2 (Homo sapiens, UniProt P51955)
T30 construct: purchased Millipore, Inc. (KinaseProfiler service)
Description: as §1

[32] = target: T31, CDK6/cyclinD3 (Homo sapiens, UniProt Q00534)
T31 construct: purchased Millipore, Inc. (KinaseProfiler service)
Description: as §1

[33] = target: T32, MLK1 (Homo sapiens, UniProt P80192)
T32 construct: purchased Millipore, Inc. (KinaseProfiler service)
T32 sequence (P80192 whole entry): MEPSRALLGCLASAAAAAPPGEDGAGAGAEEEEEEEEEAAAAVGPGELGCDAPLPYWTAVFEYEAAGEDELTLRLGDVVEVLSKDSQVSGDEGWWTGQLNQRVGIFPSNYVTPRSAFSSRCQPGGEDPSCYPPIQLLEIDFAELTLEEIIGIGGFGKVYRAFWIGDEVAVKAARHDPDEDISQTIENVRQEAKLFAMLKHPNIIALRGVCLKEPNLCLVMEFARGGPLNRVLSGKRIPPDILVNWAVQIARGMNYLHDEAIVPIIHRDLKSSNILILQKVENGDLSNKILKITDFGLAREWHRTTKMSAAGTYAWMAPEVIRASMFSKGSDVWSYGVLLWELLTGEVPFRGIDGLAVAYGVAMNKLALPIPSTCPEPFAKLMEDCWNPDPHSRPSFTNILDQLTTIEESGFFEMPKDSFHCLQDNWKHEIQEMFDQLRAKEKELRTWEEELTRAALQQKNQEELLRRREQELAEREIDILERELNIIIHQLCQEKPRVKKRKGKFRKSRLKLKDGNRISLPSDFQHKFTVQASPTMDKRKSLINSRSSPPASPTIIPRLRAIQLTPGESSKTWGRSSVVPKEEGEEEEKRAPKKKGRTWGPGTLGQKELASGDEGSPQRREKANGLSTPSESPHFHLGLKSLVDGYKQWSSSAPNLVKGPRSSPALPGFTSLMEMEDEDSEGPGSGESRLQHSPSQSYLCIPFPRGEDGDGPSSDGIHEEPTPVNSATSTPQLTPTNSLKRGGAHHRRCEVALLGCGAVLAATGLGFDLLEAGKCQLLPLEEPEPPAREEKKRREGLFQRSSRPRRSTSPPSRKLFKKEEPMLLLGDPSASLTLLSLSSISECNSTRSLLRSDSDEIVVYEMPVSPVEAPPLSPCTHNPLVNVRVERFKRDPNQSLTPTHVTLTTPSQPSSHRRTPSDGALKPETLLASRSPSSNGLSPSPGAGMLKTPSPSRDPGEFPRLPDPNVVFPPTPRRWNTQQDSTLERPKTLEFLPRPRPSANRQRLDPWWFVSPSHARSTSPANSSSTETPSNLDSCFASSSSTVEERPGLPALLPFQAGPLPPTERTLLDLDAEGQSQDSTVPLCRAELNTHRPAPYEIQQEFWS
Description: as §1

[34] = target: T33, Abl-P (Homo sapiens, UniProt P00519)
T33 construct: purchased Millipore (KinaseProfiler service)
Description: as §1

[35] = target: T34, MRCKbeta (Homo sapiens, UniProt Q9Y5S2)
T34 construct: purchased Millipore, Inc. (KinaseProfiler service)
Description: as §1

[36] = target: T35, TSSK1 (Homo sapiens, UniProt Q9BXA7)
T35 construct: purchased Millipore, Inc. (KinaseProfiler service)
Description: as §1

[37] = target: T36, IRAK4 (Homo sapiens, UniProt Q9NWZ3)
T36 construct: purchased Millipore, Inc. (KinaseProfiler service)
Description: as §1

[38] = target: T37, CAMK2b (Homo sapiens, UniProt Q13554)
T37 construct: purchased Millipore (KinaseProfiler service)
Description: as §1

[39] = target: T38, Plk3 (Homo sapiens, UniProt Q9H4B4)
T38 construct: purchased Millipore, Inc. (KinaseProfiler service)
Description: as §1

[40] = target: T39, SGK3 (Homo sapiens, UniProt Q96BR1)
T39 construct: purchased Millipore, Inc. (KinaseProfiler service)
Description: as §1

[41] = target: T40, PRKG1beta (Homo sapiens, UniProt Q13976)
T40 construct: purchased Millipore, Inc. (KinaseProfiler service)
T40 sequence (Q13976 1-686 isoform Q13976-2): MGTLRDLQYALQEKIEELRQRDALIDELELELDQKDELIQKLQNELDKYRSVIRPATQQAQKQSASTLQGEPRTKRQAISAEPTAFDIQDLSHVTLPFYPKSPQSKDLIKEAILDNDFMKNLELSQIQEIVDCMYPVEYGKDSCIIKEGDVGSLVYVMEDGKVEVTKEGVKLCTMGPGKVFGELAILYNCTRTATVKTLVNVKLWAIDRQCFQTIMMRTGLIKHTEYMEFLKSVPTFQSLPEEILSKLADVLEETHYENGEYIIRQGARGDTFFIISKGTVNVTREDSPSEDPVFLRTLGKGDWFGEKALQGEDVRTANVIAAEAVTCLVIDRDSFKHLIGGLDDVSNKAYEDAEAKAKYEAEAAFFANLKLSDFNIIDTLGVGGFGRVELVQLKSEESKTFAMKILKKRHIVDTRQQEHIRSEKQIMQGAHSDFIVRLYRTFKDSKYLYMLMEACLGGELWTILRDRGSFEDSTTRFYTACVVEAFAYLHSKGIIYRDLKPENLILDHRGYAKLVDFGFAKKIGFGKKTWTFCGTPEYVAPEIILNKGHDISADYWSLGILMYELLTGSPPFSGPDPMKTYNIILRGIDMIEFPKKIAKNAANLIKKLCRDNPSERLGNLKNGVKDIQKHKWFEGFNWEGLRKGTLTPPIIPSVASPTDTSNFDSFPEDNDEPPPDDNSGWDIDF
Description: as §1

SMILES: COCc1ccc(C2CCC2)c(CNC(=O)Nc2c(C)c(-c3cnc(C)nc3)nn2-c2ccccc2)c1 [Example 10, 1-(2-cyclobutyl-5-(methoxymethyl)benzyl)-3-(4-methyl-3-(2-methylpyrimidin-5-yl)-1-phenyl-1H-pyrazol-5-yl)urea]
- Avg POC c-RAF [1]: 90 POC
- Avg POC CLK3 [2]: 104.5 POC
- Avg POC CDK2/cyclinA [3]: 98.5 POC
- Avg POC GRK6 [4]: 97.5 POC
- Avg POC MuSK [5]: 95 POC
- Avg POC FGFR4 [6]: 118 POC
- Avg POC MSSK1 [7]: 112 POC
- Avg POC p38alpha [8]: 91.5 POC
- Avg POC TEC Activated [9]: 88.5 POC
- Avg POC JNK1alpha1 [10]: 98 POC
- Avg POC CAMK2d [11]: 126.5 POC
- Avg POC BrSK2 [12]: 95 POC
- Avg POC DAPK2 [13]: 105 POC
- Avg POC WNK2 [14]: 109 POC
- Avg POC JNK2alpha2 [15]: 81.5 POC
- Avg POC SRPK2 [16]: 114 POC
- Avg POC HIPK2 [17]: 102.5 POC
- Avg POC PKD1 [18]: 94.5 POC
- Avg POC PAK5 [19]: 96.5 POC
- Avg POC CK2alpha2 [20]: 109 POC
- Avg POC AKT1 [21]: 105 POC
- Avg POC ITK [22]: 112 POC
- Avg POC Ron [23]: 100.5 POC
- Avg POC Mer [24]: 87.5 POC
- Avg POC ROCK-II [25]: 98 POC
- Avg POC PKCbetaII [26]: 94 POC
- Avg POC Flt1 [27]: 88 POC
- Avg POC IR [28]: 90 POC
- Avg POC ALK [29]: 102.5 POC
- Avg POC JAK2 [30]: 106.5 POC
- Avg POC NEK2 [31]: 98 POC
- Avg POC CDK6/cyclinD3 [32]: 102 POC
- Avg POC MLK1 [33]: 100.5 POC
- Avg POC Abl-P [34]: 97 POC
- Avg POC MRCKbeta [35]: 108.5 POC
- Avg POC TSSK1 [36]: 60 POC
- Avg POC IRAK4 [37]: 122.5 POC
- Avg POC CAMK2b [38]: 94 POC
- Avg POC Plk3 [39]: 111 POC
- Avg POC SGK3 [40]: 92.5 POC
- Avg POC PRKG1beta [41]: 107.5 POC
